Reference: patent publication US20240166612A1, “ARYLTHIOETHER ACETAMIDE AND RELATED COMPOUNDS AND THEIR USE IN TREATING MEDICAL CONDITIONS” (X-Biotix Therapeutics, Inc., priority 2021, published 2024)
Converted amounts (≈) assume the structure as drawn.

Columns and labels:
[1] = system: P. aeruginosa PAO397; assay: Broth microdilution MIC, P. aeruginosa PAO397; type: cell-based; conditions: Pseudomonas aeruginosa, PAO397, 18 h, read-out: PAO397 KO MIC
[2] = target: T1, recombinant LpxA enzyme (P. aeruginosa) (Pseudomonas aeruginosa, UniProt Q9X6P4); assay: LpxA in vitro substrate acylation assay with RapidFire MS analysis (P. aeruginosa); type: biochemical; conditions: P. aeruginosa enzyme 0.5 nM, PaACP-C10, 30 min
T1 sequence (Q9X6P4 1-258): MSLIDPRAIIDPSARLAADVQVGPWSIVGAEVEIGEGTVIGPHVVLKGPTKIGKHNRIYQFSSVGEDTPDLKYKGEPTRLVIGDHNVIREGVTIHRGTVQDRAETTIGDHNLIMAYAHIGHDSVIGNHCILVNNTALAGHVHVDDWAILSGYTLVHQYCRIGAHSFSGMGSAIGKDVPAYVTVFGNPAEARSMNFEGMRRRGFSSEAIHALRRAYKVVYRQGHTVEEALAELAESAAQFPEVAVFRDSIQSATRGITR
Protocol: (§1) Exemplary compounds from the above Examples were tested for ability to inhibit LpxA activity using an in vitro substrate acylation assay with RapidFire™ MS analysis. Assay procedures and results are described below.
(§2) Reactions were carried out in a final volume of 30 μL with 25 mM HEPES (pH 7.3), 150 mM NaCl, 2 mM DTT, 0.01% BSA, 5 μM UDP-GlcNac, recombinant LpxA enzyme (0.5 nM P. aeruginosa or 1.0 nM E. coli, both produced at Evotec), 0.5 μM acyl-transfer reagent (decanoyl P. aeruginosa acyl-carrier protein [PaACP-C10] or myristoyl E. coli acyl-carrier protein [EcACP-C1-4], both produced at Evotec), and 1% DMSO containing test compound. After 30 min incubation at room temperature, reactions were stopped by addition of 30 μL of 10% TCA in water.
(§3) Samples were centrifuged (4350 rpm, 4° C., 5 min), and then subjected to RapidFire™ MS analysis on an Agilent RapidFire 300 coupled to an Agilent 6460 triple-quadrupole mass spectrometer. Analytes were retained on a C4 (type A) cartridge using the following solvents and flow rates: • Pump 1—H2O with 5 mM NH4OAc at 2.0 mL/min, • Pump 2—MeOH/H2O (90/10) at 1.5 mL/min, • Pump 3—MeOH/H2O (90/10) at 0.5 mL/min, and • Pump 4—ACN (organic)/H2O (aqueous). Substrate and product of the reaction were detected in negative mode ESI-MS/MS by MRM (multiple reaction monitoring) of transitions 606.0/385.0 (UDP-GlcNAc substrate) and 776.2/385.0 (UDP-3-O—(R-3-hydroxydecanoyl)-GlcNAc product, for P. aeruginosa LpxA assay) or 832.2/385.0 (UDP-3-O—(R-3-hydroxymyristoyl)-GlcNAc product, for E. coli LpxA assay).
(§4) For IC50 determinations, peak areas of the substrate and product were compared to compute the proportion of product formed by the LpxA enzyme at each compound concentration.

[3] = system: Wild-type P. aeruginosa PAO1; assay: Broth microdilution MIC, wild-type P. aeruginosa PAO1; type: cell-based; conditions: Pseudomonas aeruginosa; wild-type P. aeruginosa PAO1, 37° C., 18 h; read-out: PAO1 WT MIC
[4] = target: recombinant LpxA enzyme (E. coli) (Escherichia coli, UniProt P0A722); assay: LpxA in vitro substrate acylation assay with RapidFire MS analysis (E. coli); type: biochemical
Protocol: as §1, §2, §3, §4

[5] = system: P. aeruginosa PAO1 ΔmexABoprM; assay: Broth microdilution MIC, P. aeruginosa PAO1 ΔmexABoprM; type: cell-based; conditions: Pseudomonas aeruginosa, PAO1, 18 h, read-out: PAO1 KO MIC
Protocol: Exemplary compounds from the above Examples were tested to determine their minimum inhibitory concentration (MIC) for exemplary strains of Escherichia and Pseudomonas bacteria using broth microdilution methods. Assay procedures and results are described below.
Broth microdilution assays were conducted according to Clinical and Laboratory Standards Institute guidelines (CLSI, M07-A^11: Clinical and Laboratory Standards Institute. Methods for Dilution Antimicrobial Susceptibility Tests for Bacteria that Grow Aerobically; Approved Standard-11th Edition. Wayne, PA: CLSI, 2018). Briefly, bacterial suspensions were adjusted to a density equivalent to a 0.5 McFarland standard and diluted in sterile, cation-adjusted Mueller-Hinton broth (Beckton Dickinson) to yield a final inoculum between 2×10^5 and 8×10^5 colony-forming units (CFU)/mL. An inoculum volume of 98 μL was added to wells containing 2 μL of 2-fold serial dilutions of drug (prepared in DMSO). All inoculated microdilution trays were incubated in ambient air at 37° C. for 18 h. […] Performance of the assay was monitored by the use of laboratory quality-control strains (S. aureus ATCC 29213 and P. aeruginosa ATCC 27853) and levofloxacin, a compound with a defined MIC spectrum, in accordance with CLSI guidelines (CLSI, M100Ed29: Clinical and Laboratory Standards Institute. Performance Standards for Antimicrobial Susceptibility Testing, 29th Edition. Wayne, PA: CLSI, 2018).
Multiple enterobacteriaceae strains were tested, including both wild-type strains and multi-drug resistance pump deficient mutants. Specific strains tested included the following: • Wild-type P. aeruginosa PAO1, • P. aeruginosa PAO1 ΔmexABoprM—Disabled multi-drug efflux system Δ(MexAB-OprM), • P. aeruginosa PAO397—PAO1Δ(mexAB-oprM) Δ(mexCD-oprJ) Δ(mexEF-oprN) Δ(mexJK) Δ(mexXY) ΔopmH, • P. aeruginosa LESB58—Clinical isolate; colistin-resistant, isolated in the United Kingdom in 1988 from a patient with cystic fibrosis • E. coli JW0452-3 (BW25113 JacrA::kan)—Disabled multi-drug efflux system (AcrAB-TolC).
Experimental results are provided in Table 11, which provides MIC values for wild-type P. aeruginosa PAO1 (“PAO1 WT MIC”), P. aeruginosa PAO ΔmexABoprM (“PAO1 KO MIC”), P. aeruginosa PAO397 (“PAO397 KO MIC”), P. aeruginosa LESB58 (“LESB58”), and E. coli JW0452-3 (BW25113 JacrA::kan) (“E. coli KO MIC”).

[6] = system: P. aeruginosa LESB58; assay: Broth microdilution MIC, P. aeruginosa LESB58; type: cell-based; conditions: Pseudomonas aeruginosa; P. aeruginosa LESB58 clinical isolate, colistin-resistant, 37° C., 18 h

Sequence of recombinant LpxA enzyme (E. coli) (P0A722 whole entry): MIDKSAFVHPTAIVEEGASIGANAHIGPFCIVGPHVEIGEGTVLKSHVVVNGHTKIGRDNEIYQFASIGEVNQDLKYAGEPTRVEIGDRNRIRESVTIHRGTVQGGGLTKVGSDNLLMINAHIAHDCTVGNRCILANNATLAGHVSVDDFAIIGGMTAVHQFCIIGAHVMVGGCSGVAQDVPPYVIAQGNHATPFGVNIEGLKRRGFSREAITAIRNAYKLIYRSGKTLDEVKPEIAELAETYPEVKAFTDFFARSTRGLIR

| Compound | MIC [1] [µg/mL] | IC50 [2] [nM] | MIC [3] [µg/mL] | IC50 [4] [nM] | MIC [5] [µg/mL] | MIC [6] [µg/mL] |
| --- | --- | --- | --- | --- | --- | --- |
| N#Cc1ccc(CN(CC(=O)N2CCNCC2)C(=O)CSc2ccccc2Cl)cc1 [Compound No. 3] | 16 to 64 (≈ 36.1 to 144 µM) | > 1000 | > 64 | > 20000 |  |  |
| CCc1ccccc1SCC(=O)N(Cc1ccc(C#N)nc1)Cc1nnc(N)o1 [Compound No. 7, N-[(5-Amino-1,3,4-oxadiazol-2-yl)methyl]-N-[(6-cyano-3-pyridyl)methyl]-2-(2-ethylphenyl)sulfanyl-acetamide] | < 1 | < 20 | > 64 |  | 1 to 16 (≈ 2.45 to 39.2 µM) | 16 to 64 (≈ 39.2 to 157 µM) |
| N#Cc1ccc(CN(Cc2nnc(N)o2)C(=O)CSc2cc(F)cc(F)c2Cl)cn1 [Compound No. 21, N-[(5-Amino-1,3,4-oxadiazol-2-yl)methyl]-2-(2-chloro-3,5-difluoro-phenyl)sulfanyl-N-[(6-cyano-3-pyridyl)methyl]acetamide] | < 1 | < 20 | 16 to 64 (≈ 35.5 to 142 µM) |  | 1 to 16 (≈ 2.22 to 35.5 µM) | 16 to 64 (≈ 35.5 to 142 µM) |
| N#Cc1ccc(CN(Cc2nnc(N)o2)C(=O)CSc2cccc(F)c2Cl)c(F)c1 [Compound No. 28, N-[(5-Amino-1,3,4-oxadiazol-2-yl)methyl]-2-(2-chloro-3-fluoro-phenyl)sulfanyl-N-[(4-cyano-2-fluoro-phenyl)methyl]acetamide] | < 1 | < 20 | 16 to 64 (≈ 35.6 to 142 µM) |  | 1 to 16 (≈ 2.22 to 35.6 µM) |  |
| N#Cc1ccc(CN(Cc2nnc(N)o2)C(=O)CSc2cc(OCCN)ccc2Cl)c(F)c1 [Compound No. 60, 2-[5-(2-Aminoethoxy)-2-chloro-phenyl]sulfanyl-N-[(5-amino-1,3,4-oxadiazol-2-yl)methyl]-N-[(4-cyano-2-fluoro-phenyl)methyl]acetamide] | < 1 | 100 to 1000 | > 64 |  | 1 to 16 (≈ 2.04 to 32.6 µM) |  |
| Cc1noc(CN(Cc2ccc(C#N)cc2)C(=O)CSc2ccccc2Cl)n1 [Compound No. 68, 2-(2-Chlorophenyl)sulfanyl-N-[(4-cyanophenyl)methyl]-N-[(3-methyl-1,2,4-oxadiazol-5-yl)methyl]acetamide] | 1 to 16 (≈ 2.42 to 38.8 µM) | 20 to 100 | > 64 |  | 16 to 64 (≈ 38.8 to 155 µM) |  |
| CCc1ccccc1SCC(=O)N(Cc1ccc(C#N)cc1)Cc1nnc(N)[nH]1 [Compound No. 70, N-[(5-Amino-4H-1,2,4-triazol-3-yl)methyl]-N-[(4-cyanophenyl)methyl]-2-(2-ethylphenyl)sulfanyl-acetamide] | < 1 | 20 to 100 | > 64 |  | 1 to 16 (≈ 2.46 to 39.4 µM) |  |
| N#Cc1ccc(CN(Cc2nnc(N)o2)C(=O)CSc2ccccc2Cl)cc1 [compound 9] | < 1 |  | 16 to 64 (≈ 38.7 to 155 µM) | > 20000 | 1 to 16 (≈ 2.42 to 38.7 µM) |  |
| Cc1ccccc1SCC(=O)N(Cc1ccc(C#N)nc1)Cc1nnc(N)o1 [compound 15] | 1 to 16 (≈ 2.54 to 40.6 µM) | 100 to 1000 | > 64 |  | 1 to 16 (≈ 2.54 to 40.6 µM) |  |
| CCc1ccccc1OCC(=O)N(Cc1ccc(C#N)nc1)Cc1nnc(N)o1 [compound 19] | < 1 | 20 to 100 | > 64 |  | 1 to 16 (≈ 2.55 to 40.8 µM) | 16 to 64 (≈ 40.8 to 163 µM) |
| Nc1nnc(CN(Cc2ccc(S(N)(=O)=O)cc2F)C(=O)CSc2cc(F)ccc2Cl)o1 [compound 24] | < 1 | 20 to 100 | > 64 |  | 1 to 16 (≈ 1.98 to 31.7 µM) | 16 to 64 (≈ 31.7 to 127 µM) |
| Nc1nnc(CN(Cc2ccc(S(N)(=O)=O)cc2F)C(=O)CSc2cc(F)cc(F)c2Cl)o1 [compound 27] | < 1 |  | > 64 | > 20000 | < 1 | 1 to 16 (≈ 1.92 to 30.7 µM) |
